For 12 compounds, IC50 results are on record in patent US11447466B2, “Substituted indole compounds useful as inhibitors of TLR7/8/9” (BRISTOL-MYERS SQUIBB COMPANY, priority 2017, dated 2022).

Structures are written as SMILES.

In general, IC50 refers to the concentration at which inhibition is half-maximal. Read a low IC50 as greater potency in that assay.

For one test, the target named is T1, human TLR8 (Homo sapiens, UniProt Q9NR97).
T1 construct: host or cells: HEK-Blue cells
T1 sequence (Q9NR97 27-1041): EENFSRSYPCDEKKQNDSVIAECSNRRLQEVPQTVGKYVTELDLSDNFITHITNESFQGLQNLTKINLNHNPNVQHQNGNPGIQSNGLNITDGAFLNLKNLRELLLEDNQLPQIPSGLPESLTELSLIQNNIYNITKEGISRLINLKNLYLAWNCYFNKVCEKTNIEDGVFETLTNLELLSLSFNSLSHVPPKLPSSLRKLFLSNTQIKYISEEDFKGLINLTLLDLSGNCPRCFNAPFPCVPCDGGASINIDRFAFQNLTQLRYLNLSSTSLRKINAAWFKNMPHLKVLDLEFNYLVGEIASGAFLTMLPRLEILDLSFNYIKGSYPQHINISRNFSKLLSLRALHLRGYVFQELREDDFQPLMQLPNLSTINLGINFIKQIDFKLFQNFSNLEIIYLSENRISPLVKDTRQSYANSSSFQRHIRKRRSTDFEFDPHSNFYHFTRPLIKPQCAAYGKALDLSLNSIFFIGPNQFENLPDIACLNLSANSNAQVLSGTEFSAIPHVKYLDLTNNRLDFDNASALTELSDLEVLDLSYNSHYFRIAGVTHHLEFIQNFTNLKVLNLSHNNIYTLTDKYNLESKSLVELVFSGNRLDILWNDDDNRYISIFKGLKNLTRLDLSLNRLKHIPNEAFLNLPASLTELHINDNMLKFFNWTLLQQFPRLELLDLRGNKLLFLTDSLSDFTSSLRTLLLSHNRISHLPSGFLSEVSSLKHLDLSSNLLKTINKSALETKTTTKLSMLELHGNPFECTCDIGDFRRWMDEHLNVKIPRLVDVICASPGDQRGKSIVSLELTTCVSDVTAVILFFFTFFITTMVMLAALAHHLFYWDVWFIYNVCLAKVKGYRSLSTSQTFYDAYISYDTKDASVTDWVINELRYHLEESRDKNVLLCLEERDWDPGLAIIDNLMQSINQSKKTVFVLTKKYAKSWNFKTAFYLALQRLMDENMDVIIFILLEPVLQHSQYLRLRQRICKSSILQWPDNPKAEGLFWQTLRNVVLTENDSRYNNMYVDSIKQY
Nature of the test: TLR8 inhibition reporter assay (HEK-Blue SEAP reporter, R848 stimulation). Type of test: cell-based. The following applies: HEK-Blue cells overexpressing human TLR8, SEAP reporter, R848 15.9 μM, 22 hour incubation. On the procedure:
(§1) TLR7/8/9 Inhibition Reporter Assays
(§2) HEK-Blue™-cells (Invivogen) overexpressing human TLR7, TLR8 or TLR9 receptors were used for screening inhibitors of these receptors using an inducible SEAP (secreted embryonic alkaline phosphatase) reporter gene under the control of the IFN-β minimal promoter fused to five NF-κB and AP-1-binding sites. Briefly, cells are seeded into Greiner 384 well plates (15000 cells per well for TLR7, 20,000 for TLR8 and 25,000 for TLR9) and then treated with test compounds in DMSO to yield a final dose response concentration range of 0.05 nM-50 μM. After a 30 minute compound pre-treatment at room temperature, the cells are then stimulated with a TLR7 ligand (gardiquimod at a final concentration of 7.5 μM), TLR8 ligand (R848 at a final concentration of 15.9 μM) or TLR9 ligand (ODN2006 at a final concentration of 5 nM) to activate NF-κB and AP-1 which induce the production of SEAP. After a 22 hour incubation at 37° C., 5% CO2, SEAP levels are determined with the addition of HEK-Blue™ Detection reagent (Invivogen), a cell culture medium that allows for detection of SEAP, according to manufacturer's specifications. The percent inhibition is determined as the % reduction in the HEK-Blue signal present in wells treated with agonist plus DMSO alone compared to wells treated with a known inhibitor.

For the next test, the target named is T2, human TLR7 (Homo sapiens, UniProt Q9NYK1).
T2 construct: host or cells: HEK-Blue cells
T2 sequence (Q9NYK1 27-1049): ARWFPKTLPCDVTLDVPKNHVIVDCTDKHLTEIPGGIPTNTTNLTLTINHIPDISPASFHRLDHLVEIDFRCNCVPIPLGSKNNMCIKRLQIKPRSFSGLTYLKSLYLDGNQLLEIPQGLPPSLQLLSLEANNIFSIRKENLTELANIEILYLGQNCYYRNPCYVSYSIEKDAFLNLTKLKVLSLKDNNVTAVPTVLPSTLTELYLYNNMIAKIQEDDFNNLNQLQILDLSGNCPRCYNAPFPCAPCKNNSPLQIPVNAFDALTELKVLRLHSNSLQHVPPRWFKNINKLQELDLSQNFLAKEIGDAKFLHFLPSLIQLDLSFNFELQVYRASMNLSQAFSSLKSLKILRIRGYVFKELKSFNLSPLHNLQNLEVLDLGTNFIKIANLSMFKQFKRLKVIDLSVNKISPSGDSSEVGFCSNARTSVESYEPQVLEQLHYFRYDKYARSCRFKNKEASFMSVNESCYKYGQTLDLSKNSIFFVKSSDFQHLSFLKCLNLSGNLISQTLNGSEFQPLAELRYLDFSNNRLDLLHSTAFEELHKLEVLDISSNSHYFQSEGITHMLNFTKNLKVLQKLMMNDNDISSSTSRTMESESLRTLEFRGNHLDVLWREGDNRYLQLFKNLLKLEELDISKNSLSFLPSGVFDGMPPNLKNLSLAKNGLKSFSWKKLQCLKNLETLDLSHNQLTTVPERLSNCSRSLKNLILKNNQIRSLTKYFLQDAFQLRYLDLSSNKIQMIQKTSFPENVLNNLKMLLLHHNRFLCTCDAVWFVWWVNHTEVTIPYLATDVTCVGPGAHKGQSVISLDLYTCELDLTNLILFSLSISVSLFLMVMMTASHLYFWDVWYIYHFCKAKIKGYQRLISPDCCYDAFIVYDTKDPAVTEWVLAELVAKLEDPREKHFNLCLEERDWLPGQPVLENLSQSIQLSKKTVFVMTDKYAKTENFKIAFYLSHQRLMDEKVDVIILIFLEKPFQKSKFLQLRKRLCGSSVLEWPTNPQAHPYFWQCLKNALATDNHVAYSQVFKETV
The experiment in a line: TLR7 inhibition reporter assay (HEK-Blue SEAP reporter, gardiquimod stimulation). Type of test: cell-based. The following applies: HEK-Blue cells overexpressing human TLR7, SEAP reporter, gardiquimod 7.5 μM, 22 hour incubation. On the procedure: as §1, §2
(Reporter assays use an easily measured gene product as a stand-in for the process of interest.)

On to `CCCN1CCC(c2ccc3[nH]c(-c4cc(-c5cncnc5)c(=O)n(C)c4)c(C(C)C)c3c2)CC1` [Example 249, 5-(3-isopropyl-5-(1-propylpiperidin-4-yl)-1H-indol-2-yl)-1-methyl-3-(pyrimidin-5-yl)pyridin-2(1H)-one], for which the concentration for half-maximal inhibition (IC50) was determined as 1.1 nM against human TLR8 and 14.1 nM against human TLR7.
For `Cc1cc(-c2[nH]c3ccc(C4CCN(C(=O)[C@H]5C[C@H](O)CN5)CC4)cc3c2C(C)C)cn(C)c1=O` [Example 292, 5-(5-(1-((2R,4S)-4-hydroxypyrrolidine-2-carbonyl)piperidin-4-yl)-3-isopropyl-1H-indol-2-yl)-1,3-dimethylpyridin-2(1H)-one], in that order: 40.7 nM and 7.2 nM.
The corresponding values for `CCn1nc(-c2[nH]c3ccc(C4CCNCC4)cc3c2C(C)C)c(C)c(C)c1=O` [Example 27, 2-ethyl-6-(3-isopropyl-5-(piperidin-4-yl)-1H-indol-2-yl)-4,5-dimethylpyridazin-3(2H)-one] are 18.5 nM and 165 nM.
Consider `Cc1cc(-c2[nH]c3ccc(C4CCN(CCC(C(F)(F)F)C(F)(F)F)CC4)cc3c2C(C)C)cn(C)c1=O` [Example 88, 5-(3-isopropyl-5-(1-(4,4,4-trifluoro-3-(trifluoromethyl)butyl)piperidin-4-yl)-1H-indol-2-yl)-1,3-dimethylpyridin-2(1H)-one], for which the IC50 against human TLR8 stood at 53.2 nM; against human TLR7, 67.5 nM.
With `Cc1cc(-c2[nH]c3ccc(C4CCN(C(=O)[C@@H]5C[C@@H](O)CN5)CC4)cc3c2C(C)C)cn(C)c1=O` [Example 290, 5-(5-(1-((2S,4R)-4-hydroxypyrrolidine-2-carbonyl)piperidin-4-yl)-3-isopropyl-1H-indol-2-yl)-1,3-dimethylpyridin-2(1H)-one], it took 8.3 nM to reach half-maximal inhibition at human TLR7 (IC50).
On to `Cc1cc(-c2[nH]c3ccc(C4CCN(C5CCC(C(C)C)CC5)CC4)cc3c2C(C)C)cn(C)c1=O` (stereo not shown) [Example 233, 5-(3-isopropyl-5-(1-(4-isopropylcyclohexyl)piperidin-4-yl)-1H-indol-2-yl)-1,3-dimethylpyridin-2(1H)-one], for which the concentration for half-maximal inhibition (IC50) at human TLR8 was 97 nM; on human TLR7 it was 57.7 nM.
The corresponding values for `Cc1cc(-c2[nH]c3ccc(C4CCN(C(=O)[C@H]5C[C@H](O)CN5)CC4)cc3c2C(C)C)cn(C)c1=O` [Example 288, 5-(5-(1-((2R,4S)-4-hydroxypyrrolidine-2-carbonyl)piperidin-4-yl)-3-isopropyl-1H-indol-2-yl)-1,3-dimethylpyridin-2(1H)-one] are 61.7 nM and 17.4 nM.
On human TLR7, `Cc1cc(-c2[nH]c3ccc(C4CCN(C(=O)[C@@H]5C[C@@H](O)CN5)CC4)cc3c2C(C)C)cn(C)c1=O` [Example 293, 5-(5-(1-((2S,4R)-4-hydroxypyrrolidine-2-carbonyl)piperidin-4-yl)-3-isopropyl-1H-indol-2-yl)-1,3-dimethylpyridin-2(1H)-one] registered an IC50 of 21.6 nM. This counts as double-digit nanomolar.
In the case of `Cc1cc(-c2[nH]c3ccc(C4CCN(C5CCC(C(C)C)CC5)CC4)cc3c2C(C)C)cn(C)c1=O` (stereo not shown) [Example 234, 5-(3-isopropyl-5-(1-(4-isopropylcyclohexyl)piperidin-4-yl)-1H-indol-2-yl)-1,3-dimethylpyridin-2(1H)-one], the IC50 worked out at 52.3 nM on human TLR8 and 40.2 nM at human TLR7.
With `Cc1cc(-c2[nH]c3ccc(C4CCN(CC(C)(C)O)CC4)cc3c2C(C)C)cn(Cc2ccccc2)c1=O` [Example 329, 1-benzyl-5-(5-(1-(2-hydroxy-2-methylpropyl)piperidin-4-yl)-3-isopropyl-1H-indol-2-yl)-3-methylpyridin-2(1H)-one], the IC50 at human TLR8 turned out to be 32.4 nM; at human TLR7 it was 15.8 nM.
On to `Cc1cc(-c2[nH]c3ccc(C4CCN(C(=O)C5(N)CC5)CC4)cc3c2C(C)C)cn(C)c1=O` [Example 272, 5-(5-(1-(1-aminocyclopropanecarbonyl)piperidin-4-yl)-3-isopropyl-1H-indol-2-yl)-1,3-dimethylpyridin-2(1H)-one], for which the IC50 came out at 53 nM against human TLR8 and 7.9 nM against human TLR7.
The corresponding values for `CC(C)c1c(-c2cc(-c3ccccc3)c(=O)n(C)c2)[nH]c2ccc(C3CCNCC3)cc12` [Example 53, 5-(3-isopropyl-5-(piperidin-4-yl)-1H-indol-2-yl)-1-methyl-3-phenylpyridin-2(1H)-one] are 10.3 nM and 11.4 nM.
